Data as given in patent US10646478B2, “Methods for treatment of melanoma” (CHILDREN'S MEDICAL CENTER CORPORATION, priority 2011, dated 2020).

What was measured:
[1] = tested on: crestin+ neural crest progenitors; test: In situ hybridization (ISH) for crestin in zebrafish embryos (chemical screen for suppressors of neural crest development); type: in vivo; settings: for rescue of neural crest population (crestin ISH): in the presence of leflunomide, A771726 or DH #1
Method: The screen was performed essentially as previously described^31. In brief, WT embryos were collected, staged and then plated at a density of 10 embryos per well in a […] tissue culture plate in 200 ul of E3 water. At 50% epiboly, 100 ul of a 3× chemical stock was added to each well using a Hamilton liquid handling robot, yielding a final 1× concentration. For the majority of the chemicals in the library, this yielded a concentration of ˜33 uM. The libraries used were the BIOMOL 480, Sigma LOPAC 1280, and selected additional compounds obtained through the Children's Hospital Boston Chemical Screening facility. Compounds known to affect pigmentation in Xenopus were obtained from a screen previously described^32, 33. After treatment, embryos were rinsed in E3 water, pronase treated to remove chorions, washed 4× in E3 and 1× in PBT, and then fixed in 4% PFA for 24 hours. Fixed embryos were changed to 100% methanol 24 h later, and kept until the time of ISH.
Embryos underwent automated ISH using a Biolane HTI robot with a crestin riboprobe as previously described^31. All wells were manually scored by eye, assigning a score within a range of 1 (no crestin staining) to 3 (no change in crestin) to 5 (marked increase in crestin). Note was also taken of chemicals that affected migratory patterns in both A-P and D-V directions, and overall morphology. […] All hits were validated in larger, independent clutches of 100-200 embryos using chemicals obtained from independent suppliers.

human DHODH = human DHODH (Homo sapiens, UniProt Q02127); test: In vitro DHODH assay (DCIP reduction), human enzyme; type: biochemical; settings: FIG. 11
Method: (§1) The DHODH activity assay monitored the reduction of 2,6-dichloroindophenol (DCIP) and was conducted in 50 μl of 100 mM HEPES (pH 8.0) containing 150 mM NaCl, 5% glycerol, 0.05% Triton X-100, 175 μM L-DHO, 18 μM decylubiquinone (CoQD), and 95 μM DCIP, arrayed in a 384-well format. The concentrations of enzymes used were as follows: P. falciparum 12.5 nM, human 7 nM. Following a 20 minute incubation at room temperature the absorbance was measured at 600 nm (Envision, PerkinElmer).

P. falciparum DHODH = target: T1, P. falciparum DHODH (Plasmodium falciparum, UniProt Q08210); test: In vitro DHODH assay (DCIP reduction), malarial enzyme; type: biochemical; settings: FIG. 11
T1 sequence (Q08210 24-569): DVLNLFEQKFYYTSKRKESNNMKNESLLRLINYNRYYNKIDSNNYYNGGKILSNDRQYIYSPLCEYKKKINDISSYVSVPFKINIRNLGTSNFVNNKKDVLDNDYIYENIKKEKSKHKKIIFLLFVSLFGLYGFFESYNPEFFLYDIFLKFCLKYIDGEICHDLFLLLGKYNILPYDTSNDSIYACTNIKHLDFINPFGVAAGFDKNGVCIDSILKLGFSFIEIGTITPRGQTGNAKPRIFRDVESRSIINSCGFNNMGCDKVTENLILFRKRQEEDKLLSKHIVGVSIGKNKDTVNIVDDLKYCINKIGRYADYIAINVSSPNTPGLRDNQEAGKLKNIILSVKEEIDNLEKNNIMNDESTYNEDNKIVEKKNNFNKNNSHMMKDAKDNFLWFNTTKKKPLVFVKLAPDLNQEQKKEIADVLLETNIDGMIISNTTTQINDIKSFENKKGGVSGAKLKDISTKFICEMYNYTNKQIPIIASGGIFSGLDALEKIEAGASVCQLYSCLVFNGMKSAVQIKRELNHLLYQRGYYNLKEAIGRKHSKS
Method: as §1

ventral melanocytes = test: Ventral melanocytes in Xenopus embryos; type: in vivo; settings: stage 38 embryos
[2] = tested on: human melanoma cell lines (A375, Hs.294t, RPMI7951); test: In vitro melanoma proliferation assay (CellTiterGlo); type: cell-based; settings: RPMI7951 (BRAFV600E)
Method: (§2) Human melanoma cell lines (A375, RPMI7951, Hs.294T, MAMLE-3M) were obtained from the American Type Culture Collection. The 8988 cell line was provided by Alec Kimmelman at Dana Farber, and the PANC1 and MDA-231-MB lines were provided by Rania Hartouche at Harvard. Cells were cultured in DMEM/10% FCS at 37 C, 5% CO2. For proliferation assays, 96-well clear bottom plates were used to plate cells at a density of 5,000 cells/well (RPMI7951 and A375) or 10,000 cells/well (MAMLE-3M-3M and Hs.294T) in 100 ul containing indicated concentrations of A771726 or PLX4720 or DMSO. All conditions were tested in triplicate. Media was changed at day 2, and proliferation rate was measured at day 4 using the CellTiterGlo assay kit (Promega). All values are expressed are the % of luciferase relative to the DMSO control well. Differences between groups were statistically analyzed using a generalized linear ANOVA model taking into account factors of PLX4720, A771726 and dose. IC50's were calculated using a log-logistic model.

[3] = tested on: pancreatic cancer (8988, PANC1) and breast cancer (MDA-MD-231) cell lines; test: In vitro proliferation assay in non-melanoma cell lines; type: cell-based, human; settings: BRAF WT; 8988, PANC1, MDA-MD-231
Method: as §2

A375 melanoma cells = test: In vivo xenograft study of A375 cells in nude mice; design: species or system mouse; settings: daily i.p.; PLX4720 2.5 mg/kg, Leflunomide 7.5 mg/kg; DMSO 7.4+/−1.3-fold
Method: The A375 cell line was chosen for xenografts based on prior experience with PLX4720 in this line. Cells were grown to 60-70% confluence, trypsinized and 3.5×10^5 cells were transplanted into the right flank of nude mice in a volume of 200 ul. […] Tumors were measured with digital calipers on day 4, 7 and 12 and growth rate was compared to the tumor size on day 0. Growth rates were compared between DMSO, PLX, LEF or […] using ANOVA with repeated measures to identify significant interactions. For the day 12 data, differences between the groups were compared using ANOVA followed by posthoc Tukey's least-squared difference.

[4] = tested on: neural crest stem cells (NCSCs) from fetal (E14.5) rat gut; test: Rat neural crest stem cell assays (self-renewal, colony size, differentiation); type: cell-based
Method: Enteric NCSCs from the fetal (E14.5) rat gut were isolated using flow cytometry to select the 1%-2% of cells expressing the highest levels p75 and α4 integrin as previously described^9. Cells were plated at clonal density in two wells/treatment and cultured in self-renewal medium for 8 days in LEF, A771726 or the vehicle (DMSO) followed by differentiation medium+/−LEF, A771726 or DMSO for 6 days. Cultures were fixed in 4% PFA then stained with antibodies against peripherin, GFAP, and SMA to identify neurons (N), glia (G) and myofibroblasts (M) respectively (U=unstained cells). A total of 3 to 4 independent experiments were performed, and differences measured by ANOVA followed by Bonferonni posthoc comparison. Self-renewal medium contains: DMEM-low glucose, 15% Chick Embryo Extract (CEE), Penn/Strep (P/S), 1% N2 supplement, 2% B27 supplement, 110 nM Retinoic Acid, 50 μM 2-mercaptoethanol 20 ng/ml bFGF, and 20 ng/ml IGF-1. Differentiation medium is the same except it contains 1% CEE, 10 ng/ml bFGF and no IGF-1. Differences between groups were calculated using ANOVA followed by posthoc Sheffe.
Dissociated fetal rat gut cells were plated at clonal density in non-adherent conditions in self-renewal medium with LEF, a77 or DMSO for 10 days^10. Three to five primary neurospheres per treatment were individually re-plated in adherent conditions with LEF, a77 or DMSO and after three days were dissociated into a single cell suspension using trypsin and collagenase IV. Dissociated cells from each neurosphere were re-plated in non-adherent conditions without LEF or a77 and after 10 days, the number of secondary neurospheres were counted and compared. To assess the number of multipotent primary and secondary neurospheres, a subset of neurospheres were plated adherently for 8 days in self-renewal medium followed by 6 days in differentiation medium. Cultures were fixed in 4% PFA and stained with antibodies against peripherin, GFAP, and SMA to identify neurons (N), glia (G) and myofibroblasts (M) respectively. A total of 5 independent experiments were analyzed, and the number of multipotent secondary neurospheres on a given day are normalized to the DMSO control wells, and differences calculated by ANOVA.

human DHODH, sequence (Q02127 whole entry): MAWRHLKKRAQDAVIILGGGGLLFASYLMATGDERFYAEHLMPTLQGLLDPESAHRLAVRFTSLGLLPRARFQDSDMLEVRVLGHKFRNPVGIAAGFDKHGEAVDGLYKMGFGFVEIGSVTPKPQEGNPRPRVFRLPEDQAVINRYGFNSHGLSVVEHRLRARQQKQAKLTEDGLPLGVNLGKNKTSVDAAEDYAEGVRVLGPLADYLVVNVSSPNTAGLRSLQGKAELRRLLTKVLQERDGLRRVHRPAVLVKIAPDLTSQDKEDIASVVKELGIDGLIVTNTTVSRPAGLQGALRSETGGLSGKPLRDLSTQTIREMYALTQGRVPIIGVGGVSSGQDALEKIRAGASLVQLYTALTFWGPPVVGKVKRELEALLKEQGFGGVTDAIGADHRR

SMILES: CCCCCCCCCCC1=C(C)C(=O)C(OC)=C(OC)C1=O [decylubiquinone]
- rescue of neural crest population (crestin ISH) [1]: rescue of the neural crest population

SMILES: O=C(O)c1cc(-c2ccc(-c3ccc(-c4cc(C(=O)O)c5cc(Cl)ccc5n4)cc3)cc2)nc2ccc(Cl)cc12 [NSC210627]
- crestin expression by ISH ([1]; zebrafish embryos, 50% epiboly to 24 hpf): strongly abrogated expression of crestin
- inhibition of purified human DHODH (human DHODH): strong inhibition of both enzymes, at lower concentrations in the human versus malarial forms
- inhibition of purified malarial DHODH (P. falciparum DHODH): strong inhibition of both enzymes
- ventral melanocytes in Xenopus embryos (ventral melanocytes): reduction of ventral melanocytes

SMILES: CCCS(=O)(=O)Nc1ccc(F)c(C(=O)c2c[nH]c3ncc(Cl)cc23)c1F [PLX4720]
- sensitivity of RPMI7951 to the BRAF inhibitor [2]: significantly less sensitive than the other tested cell lines
- proliferation of non-melanoma cell lines [3]: no effect
- tumor growth at 12 days post-treatment (A375 melanoma cells): 5.7+/−0.16 fold

SMILES: C/C(O)=C(\C#N)C(=O)Nc1ccc(C(F)(F)F)cc1 [A771726, teriflunomide]
- colony size reduced compared to controls [4]: 24%
- number of self-renewing NCSCs from primary stem cell colonies [4]: 35+/−6.16 % of controls

SMILES: CC(=O)[C@H]1CC[C@H]2[C@@H]3CCC4=CC(=O)CC[C@]4(C)[C@H]3CC[C@]12C [progesterone]
- rescue of neural crest population (crestin ISH) [1]: rescue of the neural crest population

SMILES: C[C@@]1(CO)[C@H](O)CC[C@@]2(C)[C@H]1CC[C@H]1C[C@@H]3C[C@@]12CC[C@]3(O)CO [aphidicolin]
- rescue of neural crest population (crestin ISH) [1]: rescue of the neural crest population
